# Assay results: paper PMC6193938, “Characterization of a novel AICARFT inhibitor which potently elevates ZMP and has anti-tumor activity in murine models” (Scientific Reports, 2018)
# What was measured:
# MDA-MB-231met2 = experiment: In vitro proliferation assay (Alamar Blue); format: cell-based, human
# Experimental: Cells lines were acquired from cell banks, see supplemental material, grown using the cell banks recommended culture conditions (Supplemental Table 3). In some experiments noted “low folate” the cells were washed and grown in folate free RPMI-1640 media (Gibco #27016-021) supplemented with 5 ml 1 M Hepes, 5 ml 100 mM Na pyruvate, 2.5 mg/ml glucose and 10% defined FBS (Hyclone #SH30070) per 500 mL media for 5–7 days to deplete intracellular folate levels prior to the start of the experiment. Where noted, cells were maintained in complete “high folate” RPMI-1640 media (ATCC #30-2001) with 10% defined FBS to contrast with the low folate conditions. […]
# Cells were cultured using recommended culture conditions unless noted otherwise (Supplemental Table 3). Cells were plated, dosed with compound and incubated at 37 °C for approximately 2 doubling times as determined for each cell line. Cell Titer Glo (Promega) assay was used to measure proliferation according to manufacturer’s recommendations by measuring luminescence with Flexstation3 (Molecular Devices) with 500 ms integration time. […]
# For a limited number of cell lines, compound dosing was performed under high or low folate conditions with cell viability being determined with Alamar Blue rather than an ATP dependent assay. […] The % inhibition for each sample was calculated and fit as described above.
# protein kinase = experiment: Panel of protein kinase assays at CEREP Panlabs (Eurofins), overall; format: biochemical
# AXL = molecular target: T1, AXL (Homo sapiens, UniProt P30530); experiment: CEREP protein kinase assay; format: biochemical
# T1 construct: purchased CEREP Panlabs (Eurofins)
# T1 sequence (P30530 26-894): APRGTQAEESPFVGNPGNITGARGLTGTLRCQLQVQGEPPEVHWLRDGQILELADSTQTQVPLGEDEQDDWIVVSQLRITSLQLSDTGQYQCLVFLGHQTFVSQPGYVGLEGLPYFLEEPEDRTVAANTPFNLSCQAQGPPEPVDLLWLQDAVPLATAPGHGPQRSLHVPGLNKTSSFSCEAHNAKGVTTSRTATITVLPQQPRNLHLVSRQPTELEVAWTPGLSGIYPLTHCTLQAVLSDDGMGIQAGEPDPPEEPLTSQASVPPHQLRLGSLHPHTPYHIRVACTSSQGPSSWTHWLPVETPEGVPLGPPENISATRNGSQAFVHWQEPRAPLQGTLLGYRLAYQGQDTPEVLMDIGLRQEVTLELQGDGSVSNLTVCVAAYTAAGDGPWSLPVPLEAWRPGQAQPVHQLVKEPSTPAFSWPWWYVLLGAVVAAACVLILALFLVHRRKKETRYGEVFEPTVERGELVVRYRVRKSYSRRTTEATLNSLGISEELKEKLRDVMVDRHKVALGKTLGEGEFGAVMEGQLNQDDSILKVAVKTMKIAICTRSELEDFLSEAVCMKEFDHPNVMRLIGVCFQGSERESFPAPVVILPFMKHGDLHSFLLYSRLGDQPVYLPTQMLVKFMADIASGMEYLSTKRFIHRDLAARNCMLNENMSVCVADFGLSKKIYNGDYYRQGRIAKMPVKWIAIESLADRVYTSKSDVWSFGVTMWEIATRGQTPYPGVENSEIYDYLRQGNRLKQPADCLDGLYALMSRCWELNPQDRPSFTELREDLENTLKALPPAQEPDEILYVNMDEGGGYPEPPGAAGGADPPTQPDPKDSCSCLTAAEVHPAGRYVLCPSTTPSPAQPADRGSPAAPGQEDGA
# BRK = molecular target: T2, BRK (Homo sapiens, UniProt Q13882); experiment: CEREP protein kinase assay; format: biochemical
# T2 construct: purchased CEREP Panlabs (Eurofins)
# T2 sequence (Q13882 whole entry): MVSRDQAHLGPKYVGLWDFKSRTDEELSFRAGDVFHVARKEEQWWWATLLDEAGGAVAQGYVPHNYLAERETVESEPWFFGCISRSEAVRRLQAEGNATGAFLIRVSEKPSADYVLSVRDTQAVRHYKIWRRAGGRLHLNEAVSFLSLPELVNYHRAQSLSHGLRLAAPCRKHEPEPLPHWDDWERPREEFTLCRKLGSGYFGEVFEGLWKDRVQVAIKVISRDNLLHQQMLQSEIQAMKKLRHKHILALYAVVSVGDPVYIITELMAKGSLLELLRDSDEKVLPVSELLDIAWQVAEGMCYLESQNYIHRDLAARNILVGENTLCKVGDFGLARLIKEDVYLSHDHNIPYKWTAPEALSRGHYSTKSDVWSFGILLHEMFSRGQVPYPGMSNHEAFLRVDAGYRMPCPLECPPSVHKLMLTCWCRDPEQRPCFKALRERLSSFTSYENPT
structure (smiles),measurement,setting,value
"O=c1[nH]ccc2cc(F)c(NS(=O)(=O)c3ccc(N4CC[C@@H](O)C4)s3)cc12 [LSN3213128, N-(6-Fluoro-1-oxo-1,2-dihydroisoquinolin-7-yl)-5-[(3R)-3-hydroxypyrrolidin-1-yl]thiophene-2-sulfonamide]",anti-proliferative effect on supplementation with hypoxanthine,MDA-MB-231met2; 32 μM hypoxanthine,completely abrogated
same,GI50,"MDA-MB-231met2; Homo sapiens, RPMI media, Alamar Blue",88 nM
same,"protein kinase activity, panel",protein kinase,no significant protein kinase activity
same,inhibition at 0.2 µM,AXL; @ 0.2 uM,-9.2%
same,inhibition at 2 µM,AXL; @ 2 uM,2.93%
same,inhibition at 20 µM,AXL; @ 20 uM,22.2%
same,inhibition at 0.2 µM,BRK; @ 0.2 uM,-32.5%
same,inhibition at 2 µM,BRK; @ 2 uM,-9.31%
same,inhibition at 20 µM,BRK; @ 20 uM,-3.2%
